These results are taken from US20180353462A1, “[…] AGENTS […] FLAVONOID DERIVATIVES TARGETING KINASES, SIRTUINS AND ONCOGENIC AGENTS FOR THE TREATMENT OF CANCERS” (priority 2015, published 2018).

The target of experiment [1] is T1, DRAK2 (Homo sapiens, UniProt O94768).
T1 construct: made in house
T1 sequence (O94768 1-372): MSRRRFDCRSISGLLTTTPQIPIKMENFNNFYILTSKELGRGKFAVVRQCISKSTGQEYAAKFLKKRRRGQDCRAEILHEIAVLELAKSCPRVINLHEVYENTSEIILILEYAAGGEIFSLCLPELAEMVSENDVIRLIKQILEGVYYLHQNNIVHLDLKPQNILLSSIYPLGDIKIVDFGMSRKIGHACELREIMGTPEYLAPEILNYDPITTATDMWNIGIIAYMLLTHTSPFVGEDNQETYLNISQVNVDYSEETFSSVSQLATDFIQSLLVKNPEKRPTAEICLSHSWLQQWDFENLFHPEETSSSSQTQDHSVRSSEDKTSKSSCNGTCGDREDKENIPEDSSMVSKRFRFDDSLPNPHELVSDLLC
As to the kind of experiment: Kinase competition binding assay, DRAK2. The following applies: Table 1 kinase panel. On the procedure:
(§1) Cannabis flavonoids and their analogs were subjected to kinase inhibition assay. The compounds were first screened at a single concentration of 10 μM in the primary assay. […]. To determine the kd or IC50 values, competition binding assays were established, authenticated and executed as described previously. Fabian et al., “A Small Molecule-Kinase Interaction Map For Clinical Kinase Inhibitors.”, Nat Biotechnol, 23(3):329-36, Epub (2005). See also, Karaman et al., “A Quantitative Analysis Of Kinase Inhibitor Selectivity”, Nat. Biotechnol. […] For most assays, kinases were fused to T7 phage strains (Fabian, supra) and for the other assays, kinases were produced in HEK-293 cells after which they were tagged with DNA for quantitative PCR detection. In general, full-length constructs were used for small, single domain kinases, and catalytic domain constructs for large multi-domain kinases. The binding assays utilized streptavidin-coated magnetic beads treated with biotinylated small molecule ligands for 30 minutes at room temperature which generated affinity resins for the kinase assays. The liganded beads were blocked with excess biotin and washed with blocking buffer (SeaBlock (Pierce), 1% BSA, 0.05% Tween 20, 1 mM DTT) to remove unbound ligand and to reduce non-specific phage binding. […] Test compounds were prepared as 40× stocks in 100% DMSO and diluted directly into the assay (Final DMSO concentration=2.5%). All reactions were performed in polypropylene 384-well plates in a final volume of 0.04 ml. […] The beads were then re-suspended in elution buffer (1×PBS, 0.05% Tween 20, 0.5 μM non-biotinylated affinity ligand) and incubated at room temperature with shaking for 30 minutes. The kinase concentration in the eluates was measured by quantitative PCR. An illustration of the kinase interaction process is presented below. Kd/IC50 values were determined using a standard dose response curve using the hill equation. Curves were fitted using a non-linear least square fit with the Levenberg-Marquardt algorithm.
(§2) The compound(s) were screened at 10 μM and results for primary screen binding interactions are reported as ‘% Ctrl’, where lower numbers indicate stronger hits in the matrix.

Experiment [2] concerns UACC-62 (Melanoma). As to the kind of experiment: WST-1 anticancer cell proliferation assay, UACC-62. The following applies: 72 hours. In kind it is cell-based. On the procedure: (§3) Bioactivity of the above-described compounds has been verified by an anticancer cell proliferation assay using the WST-1 (4-[3-(4-iodophenyl)-2-(4-nitrophenyl)-2H-5-tetrazolio]-1, 3-benzene disulfonate) colorimetric assay by Roche Life Sciences®. Anticancer activity was tested against several standard cancer cell lines including brain, breast, Kaposi sarcoma, leukemia, lung, melanoma, tenosynovial giant cell tumor, ovarian, pancreatic, colon and prostate cancer. Cells were trypsinized and plated into 96 well plates in 50 μl of media and incubated overnight. The next day approximately 18 hours after plating, 50 μl of media containing the required flavonoid-based pharmaceutical composition was added per well. Cells were plated at a density so that 72 hours post drug addition, the cells will be in log phase (500)-2000 cells/well). The compounds and extracts were solubilized in Dimethyl sulfoxide (DMSO). The cells are allowed to proliferate for 72 hours 37° C. in humidified atmosphere of 5% CO2. The experiment is terminated using WST-1 (Roche®) 10 μl per well and absorbance is read at 450 nm %690 nm. The effect of drugs on growth is assessed as percent of cell viability. The IC50 values were determined from the extract dose versus control growth curves using Graphpad Prism® software. All experiments were carried out in duplicate and the mean results determined.

Experiment [3] concerns DLD-1 (Colon). The experiment can be described thus: WST-1 anticancer cell proliferation assay, DLD-1. Type of experiment: cell-based. The following applies: 72 hours. On the procedure: as §3
The test system of experiment [4] is A549 (Lung). The experiment can be described thus: WST-1 anticancer cell proliferation assay, A549. Type of experiment: cell-based. The following applies: 72 hours. On the procedure: as §3
For experiment [5], the system named is PC-3 (Prostate). The experiment can be described thus: WST-1 anticancer cell proliferation assay, PC-3. The settings on record: 72 hours. In kind it is cell-based. The method, then:
as §3

The subject of experiment [6] is A498 (Kidney). The experiment can be described thus: WST-1 anticancer cell proliferation assay, A498. Type of experiment: cell-based. The following applies: 72 hours. On the procedure:
as §3

For experiment [7], the system named is IGROV-1 (Ovarian). As to the kind of experiment: WST-1 anticancer cell proliferation assay, IGROV-1. In kind it is cell-based. The following applies: 72 hours. On the procedure:
as §3

Experiment [8] relates to COLO-205 (Colon). As to the kind of experiment: WST-1 anticancer cell proliferation assay, COLO-205. Type of experiment: cell-based. The following applies: 72 hours. On the procedure: as §3
Experiment [9] deals with T2, DYRK1/DYRK1A (Homo sapiens, UniProt Q13627).
T2 construct: made in house
As to the kind of experiment: Kinase competition binding assay, DYRK1/DYRK1A. The settings on record: Table 1 kinase panel. The method, then: as §1, §2

Experiment [10] has as its target T3, CK2a2 (Homo sapiens, UniProt P19784).
T3 construct: made in house
The experiment can be described thus: Kinase competition binding assay, CK2a2. The settings on record: Table 1 kinase panel. On the procedure:
as §1, §2

Experiment [11] has as its system HeLa (cervical). The experiment can be described thus: WST-1 anticancer cell proliferation assay, HeLa. Type of experiment: cell-based. The settings on record: 72 hours. The method, then: as §3
Experiment [12] deals with BRD4 (Homo sapiens, UniProt O60885). The experiment can be described thus: Inhibition of bromodomains, BRD4. In kind it is binding. The settings on record: Table 3 Bromodomain. An excerpt:
(§4) Inhibition of Sirtuins, Matrix Metalloproteinase, Bromodomains was Also Confirmed Using Standard Protocols and the Results are Present in Table 2.

The target of experiment [13] is BRD3 (Homo sapiens, UniProt Q15059). The experiment can be described thus: Inhibition of bromodomains, BRD3. In kind it is binding. The following applies: Table 3 Bromodomain.
From the text: as §4

Experiment [14] concerns SNU-16 (Stomach). As to the kind of experiment: WST-1 anticancer cell proliferation assay, SNU-16. Type of experiment: cell-based. The following applies: 72 hours. The method, then:
as §3

Experiment [15] concerns MOLT-4 (Leukemia). The experiment can be described thus: WST-1 anticancer cell proliferation assay, MOLT-4. Type of experiment: cell-based. The settings on record: 72 hours. On the procedure:
as §3

In experiment [16] the target is MMP-2 (Homo sapiens, UniProt P08253). As to the kind of experiment: Inhibition of matrix metalloproteinase, MMP-2. Type of experiment: biochemical. The settings on record: Table 3 Matrix metalloproteinase.
From the text: as §4

Experiment [17] addresses MMP-7 (Homo sapiens, UniProt P09237). As to the kind of experiment: Inhibition of matrix metalloproteinase, MMP-7. In kind it is biochemical. The following applies: Table 3 Matrix metalloproteinase.
From the text: as §4

Experiment [18] deals with HC-1 (Leukemia). As to the kind of experiment: WST-1 anticancer cell proliferation assay, HC-1. The following applies: 72 hours. Type of experiment: cell-based. On the procedure:
as §3

Experiment [19] relates to CFPAC-1 pancreatic cancer xenograft. The experiment can be described thus: Human pancreatic cancer xenograft CFPAC-1 in scid mice. The following applies: CFPAC-1 cells implanted on scid mice. Type of experiment: in vivo. An excerpt: The results of the anticancer activity are presented in Tables 3 and 4 (above) and in FIG. 6, Hela cells shown at (A) and CMK cells at (B) and MV4-11 and MOLT-14 acute myeloid leukemia cells.

For `COc1cc(-c2cc(=O)c3c(O)cc(O)c(C/C=C(\C)CCC=C(C)C)c3o2)ccc1O` [FBL-03C], the IC50 in [1] stood at 980 nM; in experiment [2] it was 14 µM; in experiment [3], 13 µM; in [4], 9.4 µM; in [5], 20 µM; in [6], 14 µM. For the same compound, the IC50 in [7] stood at 15 µM; in [8] it was 17 µM; in experiment [9], 620 nM; in experiment [10], 19 nM.

`COc1ccc(-c2cc(=O)c3c(O)c(C/C=C(\C)CCC=C(C)C)c(O)cc3o2)cc1OC` [FBL-03D]: the IC50 in experiment [1], in experiment [9] and in experiment [10] was more than 30000 nM each time.

`COc1cc(-c2cc(=O)c3c(O)cc(O)c(CC=C(C)C)c3o2)ccc1O` [FBL-03G]: the IC50 in [1] was more than 10000 nM; in [11], 2.53 µM; in experiment [12], 6.14 µM; in experiment [13], 8.69 µM; in [14], 4.09 µM; in [15] it was 20 µM. Besides, the IC50 stood at 6.64 µM in experiment [16]; 3.35 µM in experiment [17]; 36 nM in experiment [9]; 9.7 nM in [10]; 5 µM in experiment [18]. In [19], the “inhibition of tumor compared to the control” value is reported as “significant inhibition of tumor”.

`COc1cc(-c2cc(=O)c3c(O)c(C/C=C(\C)CCC=C(C)C)c(O)cc3o2)ccc1O` [FBL-03A]: the IC50 is more than 20000 nM in [1]; 27 µM in experiment [2]; 15 µM in experiment [3]; 17 µM in [4]; 26 µM in [5]; 17 µM in [6]. For the same compound, the concentration for half-maximal inhibition (IC50) in [7] was 29 µM; in experiment [8] it was 27 µM; in [9] it was more than 20000 nM; in experiment [10], 350 nM.

`COc1cc(-c2cc(=O)c3c(O)c(CC=C(C)C)c(O)cc3o2)ccc1O` [FBL-03B]: the IC50 in [1] is less than 1000 nM; in [11], 10.4 µM; in experiment [12], 10.4 µM; in experiment [13] it was 7.05 µM; in experiment [14], 15 µM; in experiment [15] it was 13.2 µM. In addition, the IC50 was 115 µM in experiment [16]; 17.5 µM in experiment [17]; less than 1000 nM in experiment [9]; 477 nM in experiment [10]; 29.7 µM in experiment [18]. Also, the “inhibition of tumor compared to the control” value in experiment [19] is on record as “significant inhibition of tumor”.
